These results are taken from US9415007B2, “Cyanocobalamin low viscosity aqueous formulations for intranasal delivery” (PAR PHARMACEUTICAL INC., priority 2003, dated 2016).

Some results are limits rather than exact numbers.

The conditions of data set [1]: prior art (Merkus); not soluble at concentrations greater than; cited from earlier work.
The nature of data set [2]: Uptake of Vitamin B12 into cerebrospinal fluid after intranasal and intramuscular administration. The class given is in vivo, human. Conditions: intranasal administration compared with intramuscular injections. The source says:
We conducted a non-blinded, single dose, parallel group study to compare the uptake of Vitamin B12 into the cerebrospinal fluid (CSF) after intranasal and intramuscular administration in healthy male and non-pregnant female volunteers. This study compared CSF levels to plasma levels produced by both formulations.
Thirty-six healthy male and non-pregnant female subjects, age 18 and over, were enrolled in the study. Eighteen subjects received a single intranasal dose of 500 mcg delivered as a 0.1 mL spray and eighteen subjects received a single intramuscular dose of 100 mcg delivered intramuscularly. Each subject visited the clinical site three times in a one-month period. These visits consisted of a screening visit, one dosing visit and a final visit.
After each dosing, each subject underwent lumbar puncture only once, with the retrieval of a total 4.0 mL of CSF (4 tubes, 1.0 mL per tube).
In addition to the above, on the day of dosing 7 mL blood samples were drawn before dosing and post dosing at 5, 10, 15 and 20 minutes, and at 0.5, 1, 1½, 2, 3, 4, 6, and 8 hours post-dose (prior to discharge).
The cerebrospinal fluid was evaluated for total Vitamin B12 content. […]
The levels of vitamin B12 were determined in both the CSF and blood serum using Vitamin B12 concentrations in the CSF will be analyzed for Qualitative determination of Vitamin B12 using a validated TOSOH Nex. […]

Turning to “5,6-dimethyl-benzimidazolyl cyanocobamide [vitamin B12]”, in data set [1], the “solubility in an aqueous solution” value is recorded as ≤ 1%. For the same substance, in data set [2], the “ratio of vitamin B12 (CSF) to serum, intranasal versus intramuscular” value is recorded as “higher”.
